Test results published in PMC8470367, “Antihypertensive and Probiotic Effects of Hidakakombu (Saccharina angustata) Fermented by Lacticaseibacillus casei 001” (Foods, 2021).
Values after ≈ are worked out from the molar mass of the structure shown.

Molecular target: T1, angiotensin-converting enzyme (ACE)
T1 construct: enzyme of the commercial ACE-kit WST (Dojin / Dojindo)
Experiment: ACE-kit WST, microplate absorbance
Type: biochemical
Conditions: measured on HPLC fraction Fr. B isolated from fermented kelp extract, identified as D-Trp; pH and temperature not given

An IC50 of 73 µg/mL (≈ 357 µM) was found for `N[C@H](Cc1c[nH]c2ccccc12)C(=O)O` [D-Trp] in this work.
